# Literature values, collected in patent US20160354364A1, “Pharmaceutical Compositions” (Alpharma Pharmaceuticals LLC, priority 2008, published 2016).
# Conditions: in vivo
compound,measurement,value
"O=C1CC[C@@]2(O)[C@H]3Cc4ccc(O)c5c4[C@@]2(CCN3CC2CC2)[C@H]1O5 [Naltrexone, naltrexone]",time of absorption following oral administration,≤ 1 h
